In patent US9744220B2, “Compositions and methods for treating inflammatory diseases” (priority 2013, dated 2017):

Key:
[1] = test system: Trk; assay: Pharmacological Trk inhibition of sPDNF-stimulated H9c2 cardiomyocytes; type: cell-based, rat; conditions: K252a 200 nM 1 hr pre-incubation, sPDNF 1 μg/ml 3 hr
Method: Pharmacological inhibition: H9c2 cardiomyocytes were stimulated with sPDNF (1 μg/ml, 3 hr) without pretreatment (sPDNF) or after pretreatment with K252a (200 nM, 1 hr) (K252a+sPDNF), and transcripts of MCP-1 (FIG. 9A) and FKN (FIG. 9B) quantified by qPCR. Chemokine gene expression was normalized to HPRT and fold change calculated relative to vehicle-treated cells. Bars represent mean±SD fold change expression of duplicate samples, *P<0.05 and **P<0.01; experiment performed three times, each giving similar results.
First, H9c2 cardiomyocytes were pre-incubated (1 hr) with the Trk antagonist K252a, which blocks Trk signaling by inhibiting Trk autophosphorylation (53), followed by stimulation (3 hr) with sPDNF (1 μg/ml) or vehicle PBS, and quantification of MCP-1 and FKN transcripts by qPCR.
H9c2 cells were pre-treated with 0.1% DMSO vehicle control or 200 nM K252a for 1 h prior to addition of sPDNF (1 μg/ml). Supernatants and cell monolayers were collected for quantification of secreted chemokines and cells were harvested for mRNA quantification by qPCR.

[2] = test system: TrkA-positive PC12 cells; conditions: bacterially-expressed truncated PDNF; cited from earlier work

COC(=O)[C@@]1(O)C[C@H]2O[C@]1(C)n1c3ccccc3c3c4c(c5c6ccccc6n2c5c31)C(=O)NC4 [K252a]
effect on sPDNF stimulation of FKN transcripts [1]: completely abrogated | effect on sPDNF stimulation of MCP-1 transcripts [1]: completely abrogated

B1: truncated PDNF corresponding to amino acids 1-445 of SEQ ID NO:2: bacterially-expressed truncated PDNF, amino acids 1-445 of SEQ ID NO:2 (protein, listed as Trypanosoma cruzi)
chain: MGKTVVVASRMFWLMFFVPLLLAICPSEPAYALAPGSSRVELFKRKNSTVPFEDKAGKVTERVVHSFRLPALVNVDGVMVAIADARYDTSNDNSLIDTVAKYSVDDGETWETQIAIKNSRVSSVSRVVDPTVIVKGNKLYVLVGSYYSSRSYWSSHGDARDWDILLAVGEVTKSTAGGKITASIKWGSPVSLKKFFPAEMEGMHTNQFLGGAGVAIVASNGNLVYPVQVTNKKKQVFSKIFYSEDDGKTWKFGKGRSDFGCSEPVALEWEGKLIINTRVDWKRRLVYESSDMEKPWVEAVGTVSRVWGPSPKSNQPGSQSSFTAVTIEGMRVMLFTHPLNFKGRWLRDRLNLWLTDNQRIYNVGQVSIGDENSAYSSVLYKDDKLYCLHEINTDEVYSLVFARLVGELRIIKSVLRSWKNWDSHLSSICTPADPAASSSESGCGP
survival and differentiation of TrkA-positive PC12 cells [2]: promoted survival and differentiation

B2: truncated PDNF equivalent to amino acids 1-425 of SEQ ID NO:2: truncated PDNF, amino acids 1-425 of SEQ ID NO:2 (protein, listed as Trypanosoma cruzi)
chain: MGKTVVVASRMFWLMFFVPLLLAICPSEPAYALAPGSSRVELFKRKNSTVPFEDKAGKVTERVVHSFRLPALVNVDGVMVAIADARYDTSNDNSLIDTVAKYSVDDGETWETQIAIKNSRVSSVSRVVDPTVIVKGNKLYVLVGSYYSSRSYWSSHGDARDWDILLAVGEVTKSTAGGKITASIKWGSPVSLKKFFPAEMEGMHTNQFLGGAGVAIVASNGNLVYPVQVTNKKKQVFSKIFYSEDDGKTWKFGKGRSDFGCSEPVALEWEGKLIINTRVDWKRRLVYESSDMEKPWVEAVGTVSRVWGPSPKSNQPGSQSSFTAVTIEGMRVMLFTHPLNFKGRWLRDRLNLWLTDNQRIYNVGQVSIGDENSAYSSVLYKDDKLYCLHEINTDEVYSLVFARLVGELRIIKSVLRSWKNWDSHL
survival and differentiation of TrkA-positive PC12 cells [2]: did not
